Source: ChEMBL document CHEMBL5528039, “Discovery of a Macrocyclic Influenza Cap-Dependent Endonuclease Inhibitor” (J Med Chem, 2024)
Calls of active or inactive are those of the source. The calls are words filed in the database; no cut-off is given here.

Experiments:
Influenza A virus = experiment: Antiviral activity against Influenza A virus A/PR/8/34 infected in BALB/c mouse assessed as reduction in viral load in lungs at 5 mg/kg, po pre-infected with virus for 48 hrs followed by twice daily compound administration starting from day 2 and measured 1 hrs after last dose on day 5 by crystal violet staining based analysis; assay type: functional, organism-based; details: time 73.0 hrs
[1] = Prodrug conversion in BALB/c mouse assessed as Baloxavir Cmax at 5 mg/kg, po measured after 24 hrs by LC-MS/MS analysis; assay type: ADME, organism-based; details: in vivo
[2] = Prodrug conversion in BALB/c mouse assessed as Baloxavir AUC (0 to last) at 5 mg/kg, po measured after 24 hrs by LC-MS/MS analysis; assay type: ADME, organism-based; details: in vivo
[3] = Prodrug conversion in BALB/c mouse assessed as Baloxavir half-life at 5 mg/kg, po measured after 24 hrs by LC-MS/MS analysis; assay type: ADME, organism-based; details: in vivo

For `COC(=O)OCOc1c2n(ccc1=O)N([C@@H]1c3ccccc3SCc3c1ccc(F)c3F)[C@@H]1COCCN1C2=O` [BALOXAVIR MARBOXIL], the Activity (Influenza A virus) was “Active”, the Cmax [1] was 0.145 µM and the AUClast [2] was 880 nM·h. It also gave a t1/2 [3] of 4.1 h.
